Measurements reported in ChEMBL document CHEMBL3632577, “Lead optimization of the VU0486321 series of mGlu1 PAMs. Part 1: SAR of modifications to the central aryl core” (Bioorg Med Chem Lett, 2015).

How the values were obtained:
[1] = target: T1, Metabotropic glutamate receptor 4 (Homo sapiens, UniProt Q14833); assay: Positive allosteric modulation of human mGluR4 by calcium mobilization assay; assay type: functional
[2] = target: T1, Metabotropic glutamate receptor 4; assay: Positive allosteric modulation of human mGluR4 by calcium mobilization assay relative to PHCCC; assay type: functional
[3] = target: T2, Metabotropic glutamate receptor 1 (Homo sapiens, UniProt Q13255); assay: Positive allosteric modulation of human mGluR1 by calcium mobilization assay; assay type: functional
Target sequence in this assay (Q13255 whole entry): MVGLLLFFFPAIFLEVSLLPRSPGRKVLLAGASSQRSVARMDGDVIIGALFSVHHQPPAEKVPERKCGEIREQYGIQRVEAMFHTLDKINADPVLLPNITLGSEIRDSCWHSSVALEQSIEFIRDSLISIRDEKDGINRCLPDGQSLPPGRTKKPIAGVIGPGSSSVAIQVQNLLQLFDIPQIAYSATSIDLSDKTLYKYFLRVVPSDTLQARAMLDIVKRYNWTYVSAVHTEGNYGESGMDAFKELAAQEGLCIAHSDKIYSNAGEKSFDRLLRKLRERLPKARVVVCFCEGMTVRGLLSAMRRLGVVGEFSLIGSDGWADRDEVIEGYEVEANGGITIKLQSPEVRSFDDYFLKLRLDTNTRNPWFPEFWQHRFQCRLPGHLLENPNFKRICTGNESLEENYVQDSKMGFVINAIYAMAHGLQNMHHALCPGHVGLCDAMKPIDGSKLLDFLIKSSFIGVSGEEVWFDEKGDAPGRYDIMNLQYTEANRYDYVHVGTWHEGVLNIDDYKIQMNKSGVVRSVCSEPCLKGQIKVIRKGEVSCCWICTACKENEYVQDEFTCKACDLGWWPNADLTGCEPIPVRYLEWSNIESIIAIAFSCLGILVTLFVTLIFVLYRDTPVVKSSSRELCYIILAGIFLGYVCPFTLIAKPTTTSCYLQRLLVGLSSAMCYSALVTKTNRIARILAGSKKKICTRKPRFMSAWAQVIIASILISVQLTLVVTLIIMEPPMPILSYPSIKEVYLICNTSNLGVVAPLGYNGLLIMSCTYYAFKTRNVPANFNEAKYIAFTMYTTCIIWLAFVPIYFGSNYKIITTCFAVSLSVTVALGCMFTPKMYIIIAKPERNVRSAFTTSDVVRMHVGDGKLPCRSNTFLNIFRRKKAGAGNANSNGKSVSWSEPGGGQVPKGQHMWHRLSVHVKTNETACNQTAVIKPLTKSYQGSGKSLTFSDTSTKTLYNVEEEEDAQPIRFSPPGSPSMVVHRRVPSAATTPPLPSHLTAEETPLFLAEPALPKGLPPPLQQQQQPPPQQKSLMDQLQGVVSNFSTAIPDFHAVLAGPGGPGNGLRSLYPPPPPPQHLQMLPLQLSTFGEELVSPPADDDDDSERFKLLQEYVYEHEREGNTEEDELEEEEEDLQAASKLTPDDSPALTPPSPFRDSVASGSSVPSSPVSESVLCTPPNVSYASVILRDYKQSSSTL

[4] = target: T2, Metabotropic glutamate receptor 1; assay: Positive allosteric modulation of human mGluR1 by calcium mobilization assay relative to control; assay type: functional
Target sequence in this assay (Q13255 19-1194 limits assumed): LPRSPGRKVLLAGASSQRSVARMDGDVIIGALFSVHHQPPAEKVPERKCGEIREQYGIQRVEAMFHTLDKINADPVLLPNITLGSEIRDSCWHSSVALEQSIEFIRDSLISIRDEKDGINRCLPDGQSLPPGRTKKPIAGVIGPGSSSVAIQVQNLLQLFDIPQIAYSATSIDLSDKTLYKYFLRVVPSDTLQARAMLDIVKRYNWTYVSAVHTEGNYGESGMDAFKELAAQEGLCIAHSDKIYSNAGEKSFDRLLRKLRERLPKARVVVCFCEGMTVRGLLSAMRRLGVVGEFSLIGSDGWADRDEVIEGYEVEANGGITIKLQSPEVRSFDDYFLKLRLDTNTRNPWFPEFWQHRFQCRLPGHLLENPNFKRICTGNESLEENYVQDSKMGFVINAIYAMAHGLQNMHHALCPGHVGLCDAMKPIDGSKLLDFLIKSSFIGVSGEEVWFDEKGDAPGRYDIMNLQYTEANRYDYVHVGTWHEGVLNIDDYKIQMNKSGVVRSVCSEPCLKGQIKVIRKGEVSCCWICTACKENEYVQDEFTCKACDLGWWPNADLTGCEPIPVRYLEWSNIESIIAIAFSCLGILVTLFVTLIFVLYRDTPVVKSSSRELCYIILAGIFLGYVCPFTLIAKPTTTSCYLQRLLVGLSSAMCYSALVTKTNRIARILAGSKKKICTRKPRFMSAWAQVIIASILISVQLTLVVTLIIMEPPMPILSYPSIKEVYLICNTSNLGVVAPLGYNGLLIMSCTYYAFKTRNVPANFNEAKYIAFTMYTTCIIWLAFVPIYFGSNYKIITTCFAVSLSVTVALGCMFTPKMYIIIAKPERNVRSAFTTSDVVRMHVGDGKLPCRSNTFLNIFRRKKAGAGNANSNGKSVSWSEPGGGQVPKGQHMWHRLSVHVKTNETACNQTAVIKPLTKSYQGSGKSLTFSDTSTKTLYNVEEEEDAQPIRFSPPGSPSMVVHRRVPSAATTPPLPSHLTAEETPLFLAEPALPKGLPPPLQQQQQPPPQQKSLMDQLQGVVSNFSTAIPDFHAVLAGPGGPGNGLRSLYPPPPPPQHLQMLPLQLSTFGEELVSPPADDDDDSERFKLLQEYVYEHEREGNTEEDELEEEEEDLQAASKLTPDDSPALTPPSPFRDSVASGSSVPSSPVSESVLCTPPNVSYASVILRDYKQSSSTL

Homo sapiens = species on record: Homo sapiens; assay: Selectivity ratio of EC50 for human mGluR4 to EC50 for human mGluR1
Plasma [5] = assay: Fraction unbound in rat plasma; assay type: ADME, cell-free
Plasma [6] = assay: Fraction unbound in human plasma; assay type: ADME, cell-free
Brain = assay: Fraction unbound in rat brain; assay type: ADME, tissue-based
Rattus norvegicus = assay: Ratio of drug level in plasma to brain in rat at 0.2 mg/kg after 15 mins by cassette study; conditions: in vivo, 0.25 h

T1 sequence (Q14833 whole entry): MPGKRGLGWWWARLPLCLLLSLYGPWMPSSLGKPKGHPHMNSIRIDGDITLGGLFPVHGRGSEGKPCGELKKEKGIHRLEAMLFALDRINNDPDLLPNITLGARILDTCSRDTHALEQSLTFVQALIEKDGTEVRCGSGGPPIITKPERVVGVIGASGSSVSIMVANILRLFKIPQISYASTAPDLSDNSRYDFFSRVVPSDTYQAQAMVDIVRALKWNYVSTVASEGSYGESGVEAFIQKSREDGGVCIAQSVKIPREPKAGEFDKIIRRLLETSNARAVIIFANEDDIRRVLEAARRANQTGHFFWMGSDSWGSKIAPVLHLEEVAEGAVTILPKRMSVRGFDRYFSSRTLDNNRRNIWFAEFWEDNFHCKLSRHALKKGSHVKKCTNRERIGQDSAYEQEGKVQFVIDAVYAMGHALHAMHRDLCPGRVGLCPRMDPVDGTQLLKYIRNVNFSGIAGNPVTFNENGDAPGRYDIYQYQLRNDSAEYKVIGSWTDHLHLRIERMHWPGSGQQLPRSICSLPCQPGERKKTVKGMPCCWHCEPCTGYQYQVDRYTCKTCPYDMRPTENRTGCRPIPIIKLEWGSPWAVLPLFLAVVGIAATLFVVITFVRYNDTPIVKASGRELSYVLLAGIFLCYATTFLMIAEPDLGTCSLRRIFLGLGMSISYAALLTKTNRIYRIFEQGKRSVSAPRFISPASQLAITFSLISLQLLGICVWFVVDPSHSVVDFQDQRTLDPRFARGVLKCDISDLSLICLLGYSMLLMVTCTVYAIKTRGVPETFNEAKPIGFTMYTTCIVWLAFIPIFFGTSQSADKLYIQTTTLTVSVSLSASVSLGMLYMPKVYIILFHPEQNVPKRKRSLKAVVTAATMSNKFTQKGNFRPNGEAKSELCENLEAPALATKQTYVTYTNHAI

## Cc1ccoc1C(=O)Nc1ccc(N2C(=O)c3cccc(Cl)c3C2=O)nc1
[1]
  EC50: 1110 nM
[2]
  %max: 44%
[3]
  EC50: 34.7 nM
[3]; read-out: EC50
  EC50: 35 nM
[4]
  %max: 91%
Homo sapiens
  Ratio EC50: 31.9

## Cc1ccoc1C(=O)Nc1ccc(N2C(=O)c3ccccc3C2=O)cc1Cl
Plasma [5]
  Fu: < 1%
[1]
  EC50: > 10000 nM
Plasma [6]
  Fu: < 1%
Brain
  Fu: < 1%
[3]
  EC50: 28.8 nM
[3]; read-out: EC50
  EC50: 29 nM
[4]
  %max: 68%
Rattus norvegicus
  Ratio: 0.12

## Cc1ccoc1C(=O)Nc1ccc(N2C(=O)c3ccccc3C2=O)cn1
[1]
  EC50: > 10000 nM
[3]
  EC50: > 10000 nM
[3]; read-out: EC50
  EC50: > 10000 nM

## Cc1ccoc1C(=O)Nc1cnc(N2C(=O)c3ccccc3C2=O)nc1
[1]
  EC50: 4670 nM
[2]
  %max: 23%
[3]
  EC50: 4680 nM
[3]; read-out: EC50
  EC50: 4610 nM
[4]
  %max: 89%
Homo sapiens
  Ratio EC50: 1.01

## Cc1ccoc1C(=O)Nc1ccc(N2C(=O)c3cccc(C)c3C2=O)nc1
[1]
  EC50: 5000 nM
[2]
  %max: 100%
[3]
  EC50: 95.5 nM
[3]; read-out: EC50
  EC50: 95 nM
[4]
  %max: 105%
Homo sapiens
  Ratio EC50: 52.7

## Cc1ccoc1C(=O)Nc1ccc(N2C(=O)c3cccc(C)c3C2=O)c(F)c1
[1]
  EC50: 287 nM
[2]
  %max: 102%
[3]
  EC50: 26.3 nM
[3]; read-out: EC50
  EC50: 26 nM
[4]
  %max: 107%
Homo sapiens
  Ratio EC50: 11

## Cc1ccoc1C(=O)Nc1ccc(N2C(=O)c3ccccc3C2=O)c(F)c1
[1]
  EC50: 265 nM
[2]
  %max: 65%
[3]
  EC50: 22.4 nM
[3]; read-out: EC50
  EC50: 22 nM
[4]
  %max: 101%
Homo sapiens
  Ratio EC50: 11.9

## Cc1ccoc1C(=O)Nc1cnc(N2C(=O)c3cccc(Cl)c3C2=O)nc1
[1]
  EC50: 2530 nM
[2]
  %max: 45%
[3]
  EC50: 209 nM
[3]; read-out: EC50
  EC50: 208 nM
[4]
  %max: 84%
Homo sapiens
  Ratio EC50: 12.2

## Cc1ccoc1C(=O)Nc1ccc(N2C(=O)c3cccc(F)c3C2=O)cc1
[1]
  EC50: 382 nM
[2]
  %max: 34%
[3]
  EC50: 43.7 nM
[3]; read-out: EC50
  EC50: 44 nM
[4]
  %max: 96%
Homo sapiens
  Ratio EC50: 8.6

## Cc1ccoc1C(=O)Nc1ccc(N2C(=O)c3cccc(F)c3C2=O)c2ccccc12
[1]
  EC50: 809 nM
[2]
  %max: 83%
[3]
  EC50: 19.5 nM
[3]; read-out: EC50
  EC50: 20 nM
[4]
  %max: 90%
Homo sapiens
  Ratio EC50: 41.1

## Cc1ccoc1C(=O)Nc1ccc(N2C(=O)c3cccc(C)c3C2=O)cc1
[1]
  EC50: 350 nM
[2]
  %max: 62%
[3]
  EC50: 16.2 nM
[3]; read-out: EC50
  EC50: 16 nM
[4]
  %max: 108%
Homo sapiens
  Ratio EC50: 21.7

## Cc1ccoc1C(=O)Nc1ccc(N2C(=O)c3ccccc3C2=O)c2ccccc12
[1]
  EC50: 353 nM
[2]
  %max: 54%
[3]
  EC50: 20.4 nM
[3]; read-out: EC50
  EC50: 20 nM
[4]
  %max: 99%
Homo sapiens
  Ratio EC50: 17.4

## Cc1ccoc1C(=O)Nc1ccc(N2C(=O)c3cccc(Cl)c3C2=O)cc1
[1]
  EC50: 483 nM
[2]
  %max: 35%
[3]
  EC50: 28.8 nM
[3]; read-out: EC50
  EC50: 29 nM
[4]
  %max: 101%
Homo sapiens
  Ratio EC50: 16.7

## Cc1cc(NC(=O)c2occc2C)ccc1N1C(=O)c2cccc(Cl)c2C1=O
[1]
  EC50: 1010 nM
[2]
  %max: 127%
[3]
  EC50: 49 nM
[3]; read-out: EC50
  EC50: 49 nM
[4]
  %max: 117%
Homo sapiens
  Ratio EC50: 20.5

## Cc1ccoc1C(=O)Nc1ccc(N2C(=O)c3cccc(C)c3C2=O)c(C(F)(F)F)c1
[1]
  EC50: 5760 nM
[2]
  %max: 109%
[3]
  EC50: 537 nM
[3]; read-out: EC50
  EC50: 530 nM
[4]
  %max: 117%
Homo sapiens
  Ratio EC50: 10.8

## COc1cc(NC(=O)c2occc2C)ccc1N1C(=O)c2cccc(C)c2C1=O
[1]
  EC50: 882 nM
[2]
  %max: 107%
[3]
  EC50: 49 nM
[3]; read-out: EC50
  EC50: 49 nM
[4]
  %max: 94%
Homo sapiens
  Ratio EC50: 18

## Cc1cc(NC(=O)c2occc2C)ccc1N1C(=O)c2cccc(C)c2C1=O
[1]
  EC50: 422 nM
[2]
  %max: 122%
[3]
  EC50: 21.4 nM
[3]; read-out: EC50
  EC50: 21 nM
[4]
  %max: 100%
Homo sapiens
  Ratio EC50: 19.8

## Cc1ccoc1C(=O)Nc1ccc(N2C(=O)c3ccccc3C2=O)c(C(F)(F)F)c1
[1]
  EC50: 6660 nM
[2]
  %max: 86%
[3]
  EC50: 123 nM
[3]; read-out: EC50
  EC50: 123 nM
[4]
  %max: 108%
Homo sapiens
  Ratio EC50: 54.1

## COc1cc(NC(=O)c2occc2C)ccc1N1C(=O)c2ccccc2C1=O
[1]
  EC50: 1180 nM
[2]
  %max: 50%
[3]
  EC50: 46.8 nM
[3]; read-out: EC50
  EC50: 46 nM
[4]
  %max: 96%
Homo sapiens
  Ratio EC50: 25.6

## Cc1ccoc1C(=O)Nc1ccc(N2C(=O)c3ccccc3C2=O)cc1F
Plasma [5]
  Fu: < 1%
[1]
  EC50: > 10000 nM
Plasma [6]
  Fu: < 1%
Brain
  Fu: < 1%
[3]
  EC50: 12.6 nM
[3]; read-out: EC50
  EC50: 13 nM
[4]
  %max: 84%
Rattus norvegicus
  Ratio: 1.57

## Cc1cc(N2C(=O)c3ccccc3C2=O)ccc1NC(=O)c1occc1C
[1]
  EC50: 609 nM
[2]
  %max: 52%
[3]
  EC50: 15.1 nM
[3]; read-out: EC50
  EC50: 15 nM
[4]
  %max: 90%
Homo sapiens
  Ratio EC50: 40.6

## Cc1ccoc1C(=O)Nc1ccc(N2C(=O)c3cccc(Cl)c3C2=O)c(C(F)(F)F)c1
[1]
  EC50: 2470 nM
[2]
  %max: 120%
[3]
  EC50: 105 nM
[3]; read-out: EC50
  EC50: 106 nM
[4]
  %max: 105%
Homo sapiens
  Ratio EC50: 23.3

## Cc1ccoc1C(=O)Nc1ccc(N2C(=O)c3cccc(Cl)c3C2=O)c(F)c1
[1]
  EC50: 264 nM
[2]
  %max: 93%
[3]
  EC50: 27.5 nM
[3]; read-out: EC50
  EC50: 28 nM
[4]
  %max: 100%
Homo sapiens
  Ratio EC50: 9.5

## Cc1ccoc1C(=O)Nc1ccc(N2C(=O)c3cccc(F)c3C2=O)c(F)c1
[1]
  EC50: 674 nM
[2]
  %max: 78%
[3]
  EC50: 34.7 nM
[3]; read-out: EC50
  EC50: 35 nM
[4]
  %max: 104%
Homo sapiens
  Ratio EC50: 19.3

## Cc1cc(NC(=O)c2occc2C)ccc1N1C(=O)c2ccccc2C1=O
[1]
  EC50: 885 nM
[2]
  %max: 75%
[3]
  EC50: 89.1 nM
[3]; read-out: EC50
  EC50: 89 nM
[4]
  %max: 105%
Homo sapiens
  Ratio EC50: 9.9

## Cc1ccoc1C(=O)Nc1ccc(N2C(=O)c3ccccc3C2=O)cc1
[1]
  EC50: > 10000 nM
[3]
  EC50: 47.9 nM
[3]; read-out: EC50
  EC50: 48 nM
[4]
  %max: 82%

## Cc1ccoc1C(=O)Nc1ccc(N2C(=O)c3ccccc3C2=O)cc1C(F)(F)F
[1]
  EC50: > 10000 nM
[3]
  EC50: > 10000 nM
[3]; read-out: EC50
  EC50: > 10000 nM

## COc1cc(NC(=O)c2occc2C)ccc1N1C(=O)c2cccc(F)c2C1=O
[1]
  EC50: 1930 nM
[2]
  %max: 73%
[3]
  EC50: 145 nM
[3]; read-out: EC50
  EC50: 144 nM
[4]
  %max: 103%
Homo sapiens
  Ratio EC50: 13.4

## Cc1ccoc1C(=O)Nc1ccc(N2C(=O)c3ccccc3C2=O)nc1
[1]
  EC50: > 10000 nM
[3]
  EC50: 389 nM
[3]; read-out: EC50
  EC50: 387 nM
[4]
  %max: 80%

## COc1cc(NC(=O)c2occc2C)ccc1N1C(=O)c2cccc(Cl)c2C1=O
[1]
  EC50: 647 nM
[2]
  %max: 103%
[3]
  EC50: 18.2 nM
[3]; read-out: EC50
  EC50: 18 nM
[4]
  %max: 93%
Homo sapiens
  Ratio EC50: 36.1

## Cc1ccoc1C(=O)Nc1cnc(N2C(=O)c3cccc(F)c3C2=O)nc1
[1]
  EC50: > 10000 nM
[2]
  %max: 24%
[3]
  EC50: 5370 nM
[3]; read-out: EC50
  EC50: 5330 nM
[4]
  %max: 99%

## Cc1ccoc1C(=O)Nc1ncc(N2C(=O)c3ccccc3C2=O)cn1
[1]
  EC50: > 10000 nM
[3]
  EC50: > 10000 nM
[3]; read-out: EC50
  EC50: > 10000 nM

## Cc1cc(NC(=O)c2occc2C)ccc1N1C(=O)c2cccc(F)c2C1=O
[1]
  EC50: 1100 nM
[2]
  %max: 86%
[3]
  EC50: 49 nM
[3]; read-out: EC50
  EC50: 49 nM
[4]
  %max: 95%
Homo sapiens
  Ratio EC50: 22.4

## Cc1ccoc1C(=O)Nc1cnc(N2C(=O)c3cccc(C)c3C2=O)nc1
[1]
  EC50: 4470 nM
[2]
  %max: 104%
[3]
  EC50: 759 nM
[3]; read-out: EC50
  EC50: 751 nM
[4]
  %max: 111%
Homo sapiens
  Ratio EC50: 5.95

## COc1cc(N2C(=O)c3ccccc3C2=O)ccc1NC(=O)c1occc1C
[1]
  EC50: > 10000 nM
[3]
  EC50: 331 nM
[3]; read-out: EC50
  EC50: 330 nM
[4]
  %max: 80%

## Cc1ccoc1C(=O)Nc1ccc(N2C(=O)c3cccc(F)c3C2=O)nc1
[1]
  EC50: 3550 nM
[2]
  %max: 19%
[3]
  EC50: 200 nM
[3]; read-out: EC50
  EC50: 198 nM
[4]
  %max: 93%
Homo sapiens
  Ratio EC50: 17.9

## Cc1ccoc1C(=O)Nc1ccc(N2C(=O)c3cccc(Cl)c3C2=O)c2ccccc12
[1]
  EC50: 513 nM
[2]
  %max: 102%
[3]
  EC50: 22.4 nM
[3]; read-out: EC50
  EC50: 23 nM
[4]
  %max: 92%
Homo sapiens
  Ratio EC50: 22.8

## Cc1ccoc1C(=O)Nc1ccc(N2C(=O)c3cccc(F)c3C2=O)c(C(F)(F)F)c1
[1]
  EC50: 2870 nM
[2]
  %max: 80%
[3]
  EC50: 155 nM
[3]; read-out: EC50
  EC50: 155 nM
[4]
  %max: 110%
Homo sapiens
  Ratio EC50: 18.5

## Cc1ccoc1C(=O)Nc1ccc(N2C(=O)c3cccc(C)c3C2=O)c2ccccc12
[1]
  EC50: 429 nM
[2]
  %max: 103%
[3]
  EC50: 15.8 nM
[3]; read-out: EC50
  EC50: 16 nM
[4]
  %max: 88%
Homo sapiens
  Ratio EC50: 27.3
